Data taken from patent publication US20080182904A1, “Baclofen for Relapse Protection in Addiction” (priority 2007, published 2008).

Tests used:
[1] = cited from earlier work
[2] = cited from earlier work; remark: listed apart in the source
[3] = Alcohol-challenge test for relapse in a patient treated with baclofen for alcohol dependence; type: in vivo, human
Method: For alcoholism, vulnerability is tested with an alcohol-challenge test of about three to five standard drinks. The number of drinks can and should be varied (typically lower) if any adverse signs or cravings appear in the patient. […] If craving occurs, the patient is not protected against relapse and the SSD dosage needs to be increased and the test performed again until craving stops occurring altogether upon renewed alcohol-challenge (s). Once that state is achieved, the patient is protected against relapse.
The susceptibility of a patient to relapse while being treated for alcohol dependence using baclofen was determined. The patient (themself a physician) had been symptom-free for more than one year and was on a baclofen dose of 120 mg/day (40 mg, three times per day).
First challenge: During a social gathering, the patient had 3 standard drinks of alcohol (gin and tonic) over a few hours and evaluated the effects in the presence of a physician witness. The first drink was consumed slowly by sipping over some 40 minutes, without the slightest urge to drink it rapidly (and which had previously been the only way the patient would drink, e.g., typically consuming the drink within 5 minutes). A second drink was ordered, consumed and started to produce a pleasant mild euphoria. A third drink was begun but the patient was not able to finish it, something that would have been impossible during untreated alcohol dependence. At the time, the patient felt no desire to finish the third drink, felt a bit high and maintained the ability to chat. After a night's sleep, the patient woke up without any feelings of remorse or fear. […] The following hours were unremarkable. No alcohol thoughts or dreams occurred in the following weeks.
Second challenge: The patient repeated the experiment approximately one month later with an even stronger challenge: five drinks. Again in the presence of another physician, the patient succeeded in having 5 drinks of vodka and tonic over 6 hours. […] Accordingly the daily dosage of baclofen was increased from 40 mg three times daily, to 60 mg three times daily (180 mg/day). […] Accordingly, symptom suppression is dose-dependent and may require higher dosage when challenge is important.
Third challenge: To test if a higher than routine dose of baclofen can prevent cravings, even in the presence of a massive amount of alcohol such as is ingested during heavy drinking or during active relapse, the patient's baclofen dose was […] 24 hours prior to consuming an alcoholic beverage. The patient took 30 mg baclofen in the morning, a second such dose 8 hours later and a few hours later (in the evening) took dose of 80 mg baclofen at the same time as beginning to drink large amounts of alcohol as could reasonably tolerated, expecting that to be about a fifth of Scotch. The alcohol was consumed over several hours and the next day, actual consumption was measured to be four fifths of the bottle. […] The patient is able to have an occasional drink in a non-dependent fashion.

NCC(CC(=O)O)c1ccc(Cl)cc1 (centres unmarked) [baclofen]
complete and prolonged suppression of symptoms and consequences of AD ([1]; seven individual patients (Geneva) and one hundred patients (Vienna)): successfully reproduced | relapse ([1]; some patients treated in Switzerland, even at high-dose baclofen): did relapse | dosage sufficient for craving not to reappear ([2]; after progressive reduction from SSD, over the complete nine months of the published study): 120 mg/day | coexistent (comorbid preexisting) anxiety ([2]; at SSD): greatly attenuated | side effect ([2]; at SSD, reduced by lowering the dosage to 120 mg/day): somnolence | dose needed for craving to completely and permanently disappear (symptom-suppressing dose, SSD) ([2]; oral, gradual dose-escalation, one patient): 270 mg/day | craving after third challenge ([3]; 30 mg + 30 mg + 80 mg on the day, four fifths of a bottle of Scotch over several hours, next day): no craving and no desire whatsoever to drink liquor | craving and symptoms before challenge ([3]; 120 mg/day (40 mg three times per day), symptom-free for more than one year): completely suppressed craving and symptoms | craving during follow-up after third challenge ([3]; 180 mg/day for six days, then maintenance dose of 120 mg/day): has not experienced any craving for more than one year | craving after first challenge ([3]; 3 standard drinks (gin and tonic) over a few hours, 120 mg/day, after a night's sleep): no desire or thought to drink whatsoever | craving after second challenge ([3]; 5 drinks of vodka and tonic over 6 hours, 120 mg/day, next day in the afternoon): a bout of craving was experienced | craving on the increased regimen ([3]; second challenge, 60 mg three times daily (180 mg/day)): craving was again completely suppressed | effect of an additional dose on the bout of craving ([3]; second challenge, administration of 40 mg, craving reappeared several hours later): suppressed the craving within the hour | craving after dose reduction ([3]; second challenge, after six days at 180 mg/day progressively reduced to 120 mg/day): cravings did not reoccur
